From patent publication US20140328933A1, “NOVEL FORMULATIONS AND METHODS” (priority 2010, published 2014)
Where no end group is shown, it is not given here.

Tested on: Angiogenesis in the CAM Model
Assay: Chorioallantoic Membrane Angiogenesis (CAM) Model, branch points formation
Type: in vivo
Description: VIP in Chorioallantoic Membrane Angiogenesis (CAM) Model
FIG. 15 depicts the results of testing regarding Nanoparticle encapsulates.

Question: How did the “Total # of branches [VIP (1 ng/CAM) - PBS(average)], Mean” value (VIP 1 ng/CAM, PBS average subtracted) turn out when “Vasoactive intestinal peptide (HSDAVFTDNYTRLRKQMAVKKYLNSILN-NH2) [VIP, peptide hormone containing 28 amino acid residues]” was run?
Answer: Its value is 34.8.

Question: What about the “Total # of branches [VIP (10 ng/CAM) - PBS(average)], Mean” value (VIP 10 ng/CAM, PBS average subtracted) of the same substance?
Answer: Its value is 53.6.

Question: What about the “number of branches, Mean” value (VIP 0.1 ug/ml, 1 ng/CAM) of the same substance?
Answer: Its value is 84.8.

Question: And the “Total # of branches [VIP (100 ng/CAM) - PBS(average)], Mean” value (VIP 100 ng/CAM, PBS average subtracted)?
Answer: The value was 71.7.

Question: And the “number of branches, Mean” value (VIP 1 ug/ml, 10 ng/CAM)?
Answer: Its value is 103.6.

Question: And the “number of branches, Mean” value (VIP 10 ug/ml, 100 ng/CAM)?
Answer: Its value is 121.7.
